Laboratory results published in patent US20240366842A1, “DECELLULARIZED TISSUE HYDROGELS” (THE UNIVERSITY OF NOTTINGHAM, priority 2021, published 2024).

Key:
[1] = system: SH-SY5Y (human neuroblastoma cell line); experiment: LDH cytotoxicity assay, indirect (extract) testing; type: cell-based; conditions: media conditioned 72 hours, cells exposed 24 hours, 1 mM in 5% v/v DMSO, 10 mM in 10% v/v DMSO
Method: (§1) The cytotoxicity of PA crosslinked decellularized tissue hydrogels was assessed by an LDH assay in which hydrogels were incubated with SH-SY5Y (human neuroblastoma cell line).
(§2) Crosslinkers tested were: • PA [publicly available food supplement] • Purified oligomeric PA (OPA) [reference standard quality] • GA • GP
(§3) These were all tested in 1 and 10 mM concentrations, with the 1 mM in a solution containing 5% v/v of DMSO, and the 10 mM in a solution containing 10% v/v DMSO.
(§4) The LDH assay quantifies how many cells have died by quantifying the level of lactate that is present in the culture medium which will have been released upon cell membrane disruption during their death. The assay contains […] releases NADH which in turn can react with the dye present in the assay solutions to produce a colorimetric change. This change can be read through absorbance on a microplate spectrophotometer.
(§5) All results for the LDH have been calculated to % cytotoxicity as per the following formula recommended by the manufacturer: […]
Gels were made and crosslinked as per normal procedure and immersed in culture media for 72 hours conditioning. The conditioned culture media was then filtered and placed onto cells for a period of 24 hours. Following exposure to the conditioned media, a sample of the media was removed for testing through LDH.

[2] = system: SH-SY5Y (human neuroblastoma cell line); experiment: LDH cytotoxicity assay, direct testing; type: cell-based; conditions: gel in contact with cell monolayer 24 hours, 1 mM in 5% v/v DMSO, 10 mM in 10% v/v DMSO
Method: as §1, §2, §3, §4, §5
Gels were made and crosslinked as per normal procedure and immersed in Hanks balanced salt solution (HBSS) containing 1% v/v of antibiotics and antimycotics overnight. The gels were then removed and immersed into culture media for 2 hours before placing on top of the cell monolayer and ensuring direct contact. […]

Substance: Triton-X-100 [5% Triton]
- LDH (% cytotoxicity relative to Triton) [1]: 100%
- LDH (% cytotoxicity relative to Triton) [2]: 100%
